Test results taken from patent publication US20250011878A1, “METHOD TO DETECT RNA BIOMARKERS” (ITALFARMACO SPA, priority 2021, published 2025).
Where two headings read alike, the source gives them in different places.

How the values were obtained:
CT26 tumor cells = assay: CT26 tumor volume in BALB/c mice, responders and non-responders; format: in vivo; conditions: CT26 s.c. in BALB/c mice, treatment day 10 to day 20; three groups of animals with different tumor reduction
Experimental: Adult BALB/c mice were injected s.c. with 1×10^6 CT26 tumor cells (diluted to 100 μl with phosphate buffered saline) and treated with anti-PD1 or ITF3756 when the tumor volume reached 75-100 mm^3, to explore the modulation of genes in the tumor microenvironment by RNAseq. Since ITF3756 acts on the PD-1/PD-L1 axis, this approach allows the identification of genes specific and common to both treatments. The overall schedule is described in Table 9.
Responders and non-responders were selected based on tumor volume at day 20. The volume of the tumor at the beginning of the treatments (day 10) was on average about 75 mm^3. Based on this value of tumor volume, we classified the animals according to the following criteria: • Animals with tumor volume lower or equal to 75 mm^3 were considered RESPONDERS (R) • Animals with tumor volume greater than 75 mm^3 were considered NON RESPONDERS (NR)

[1] = mouse, in vivo, 1000 mg/kg
[2] = rat, in vivo, 1000 mg/kg
human monocytes = assay: RNAseq gene expression in purified human monocytes treated with ITF3756 and/or TNF-α; format: cell-based
Description: PBMCs used for the experiments were obtained from Buffy Coats of healthy donors (all samples tested negative for transmissible diseases as required for blood transfusion) separated over a Ficoll-Hypaque gradient (Biochrom). Monocytes were purified by negative selection from 100×10^6 PBMC using Pan Monocytes Isolation Kit (Milteny) following manufacturer's instructions. By Pan Monocyte Isolation kit untouched monocytes are isolated from human PBMCs and the simultaneous enrichment of classical (CD14^++CD16^−), non classical (CD14^+CD16^++) and intermediate (CD14^++CD16^+) monocytes is achieved. Non-monocytes, such as T cells, NK cells, B cells, dendritic cells, and basophils are indirectly magnetically labeled using a cocktail of biotin-conjugated antibodies and anti-Biotin MicroBeads. Briefly, 400 μL of Buffer (PBS 1×, 0.5% BSA and 2 mM EDTA), 100 μL of FcR Blocking Reagent and 100 μL of Biotin-Antibody Cocktail were added to PBMC, previously washed with PBS by centrifugation 300×g for 5 minutes, mixed and incubate for 5 minutes in the refrigerator (2-8° C.). After incubation, 300 μL of Buffer and 200 μL of anti-biotin microbeads were added to the cells, mixed and incubate further for 10 minutes in the refrigerator. After incubation cells were processed by subsequent magnetic cell separation. Cell suspension was applied onto the column and the flow-through containing unlabeled cells, representing the enriched monocytes, was collected. Purified monocytes were washed with Buffer by centrifugation 300×g for 5 minutes and counted in PBS. Purified monocytes (1,0×10^6/ml) were pre-treated for 2 h with ITF3756 1 μM or DMSO (0.005%) in 12-well plates in 1 ml final volume of complete medium (RPMI (Biochrom), FCS 10% and penicillin/streptomycin 1× (Sigma)). The cells were then stimulated or not with TNF-α (100 ng/mL, Peprotech) for 4h. After incubation with ITF3756 and TNF-α, the cells were collected, washed with PBS by centrifugation 300×g for 5 minutes and stored at −80° C. Samples were thawed on the bench for 2 minutes and total RNA was extracted with Trizol reagent (Thermo Fisher Scientific), following manufacturer's instructions. Briefly, Trizol reagent (0.75 ml Trizol per 5-10×10^6 cells) was added to the samples and the samples were incubated at room temperature (RT) for 5 minutes. After incubation, chloroform (150 μL per 0.75 mL Trizol) was added to the samples and after 3 minutes of incubation at RT, samples were centrifuged for 12000×g for 14 minutes at 4° C. After centrifugation, the mixture separates into 3 phases and RNA remains in the aqueous phase. The aqueous phase was removed for each sample and placed in new tubes, and isopropanol (0,375 ml per 0.75 ml of Trizol) was added in each tube. Samples was incubated for 30 minutes in the refrigerator (2-8° C.). After incubation, samples were centrifugated for 12000×g for 10 minutes at 4° C., the supernatant was removed and 75% ethanol (0.75 ml per 0.75 ml of Trizol) was added to samples. Samples were centrifuged for 7500×g for 5 minutes at 4° C., and the supernatant discarded. RNA was air dried on the bench for 5-10 minutes. RNA Samples was then resuspended in water (10-50 μL). The scheme of the experimental procedures carried out to generate the RNA sequence data is represented in FIG. 1. To determine the quantity and the integrity/purity of RNA samples, check controls were first performed by the Agilent Technologies 2100 Bioanalyzer using RNA 6000 LabChip® kit (Agilent #5067-1511). The Bioanalyzer is a bio-analytical device based on a combination of microfluidic chips, voltage-induced size separation in gel filled channels and laser-induced fluorescence (LIF) detection on a miniaturized scale. The RNA Integrity Number (RIN) software algorithm allows the classification of total RNA, based on a numbering system from 1 to 10, (with 1 being the most degraded and 10 being the most intact). […] Purified samples were processed using TruSeq RNA-Seq v2 Library Preparation Kit. […]

[3] = ITF3756 1 μM in combination with TNF-α 100 ng/mL, RNAseq
[4] = ITF3756 1 μM in the presence of TNF-α 100 ng/mL, RNAseq
[5] = ITF3756 + TNFα vs vehicle-treated control (don)
[6] = M2 marker, human monocytes, ITF3756 1 μM, RNAseq
[7] = single treatment (ITF3756 1 μM or TNF-α 100 ng/mL), RNAseq, vs control
[8] = single treatment (ITF3756 1 μM), RNAseq, vs control
[9] = single treatment vs vehicle-treated control (don), monocytes 4 h, padj<0.05
[10] = versus control, not shared with TNF-α or ITF3756+TNF-α

O=C(NO)c1ccc(Cn2nnnc2-c2cccs2)cc1 [ITF3756, N-hydroxy-4-((5-(thiophen-2-yl)-1 H-tetrazol-1-yl)methyl)benzamide]
tumor response (tumor volume) (CT26 tumor cells): heterogeneous response | tolerability [1]: well tolerated | tolerability [2]: well tolerated | CD40 gene expression (human monocytes; ITF3756 1 μM combined with TNF-α 100 ng/mL, RNAseq): slightly increases the upregulation of CD40 expression induced by TNF-α alone | ADA gene expression (human monocytes; [3]): upregulation | FATP1/SLC27A1 gene expression (human monocytes; [3]): the basal expression of the gene is maintained | IRF6 gene expression (human monocytes; [3]): no effect | NBEAL2 gene expression (human monocytes; [3]): increases the expression | ANXA6 gene expression (human monocytes; [4]): the upregulation is even stronger and probably synergistic | CD84 gene expression (human monocytes; [4]): downregulation is further enhanced | CD163 gene expression (human monocytes; [4]): down-modulated | CD204/MSR1 gene expression (human monocytes; [4]): strongly down-modulated | CD206/MRC1 gene expression (human monocytes; [4]): strongly down-modulated | CXCL2 gene expression (human monocytes; [4]): reverts the upregulation induce by TNF establishing a normal level of expression | LTBP4 gene expression (human monocytes; [4]): counters this downregulation | RANK/TNFRSF11a gene expression (human monocytes; [4]): downregulation of RANK/TNFRSF11a is increased compared to single treatments | STAB1 gene expression (human monocytes; [4]): synergistically reduced | Genes Down regulated (number of genes modulated) (human monocytes; [5]): 2329 | Genes Up regulated (number of genes modulated) (human monocytes; [5]): 2282 | MMP9 gene expression (human monocytes; ITF3756+TNF-α, compared to untreated control, RNAseq): No modulation | Fold change ADA (human monocytes; [6]): −1.9 | Fold change CD163 (human monocytes; [6]): −4 | Fold change CD204/MSR1 (human monocytes; [6]): −2.6 | Fold change CD206/MRC1 (human monocytes; [6]): −13.3 | Fold change MMP9 (human monocytes; [6]): −3.6 | Fold change STAB1 (Stabilin-1/Clever-1) (human monocytes; [6]): −14 | downregulation of PD-L1 (CD274) gene expression (human monocytes; cells treated with TNF-α+ITF3756, RNAseq): 59% | ADA gene expression (human monocytes; [7]): downmodulated | IRF6 gene expression (human monocytes; [7]): upregulates the expression | LTBP4 gene expression (human monocytes; [7]): upregulates the expression | MMP9 gene expression (human monocytes; single treatment (ITF3756 1 μM or TNF-α 100 ng/mL), RNAseq, vs untreated control): down-modulated | ANXA6 gene expression (human monocytes; [8]): robust upregulation | CD40 gene expression (human monocytes; [8]): upregulates | CD84 gene expression (human monocytes; [8]): strongly downregulates | CD163 gene expression (human monocytes; [8]): down-modulated | CD204/MSR1 gene expression (human monocytes; [8]): down-modulated | CD206/MRC1 gene expression (human monocytes; [8]): strongly down-modulated | CXCL2 gene expression (human monocytes; [8]): decreases the expression | CXCL3 gene expression (human monocytes; [8]): reduced the expression | FATP1/SLC27A1 gene expression (human monocytes; [8]): up-regulates the expression | NBEAL2 gene expression (human monocytes; [8]): increases the expression | RANK/TNFRSF11a gene expression (human monocytes; [8]): strong downregulation | STAB1 gene expression (human monocytes; [8]): strongly downregulated | CD276 gene expression (human monocytes; single treatment (ITF3756), vs control): down-regulated the expression | Genes Down regulated (number of genes modulated) (human monocytes; [9]): 1503 | Genes Up regulated (number of genes modulated) (human monocytes; [9]): 1499 | genes specifically downregulated (Venn diagram) (human monocytes; [10]): 386 | genes specifically upregulated (Venn diagram) (human monocytes; [10]): 537
